Laboratory results published in ChEMBL document CHEMBL5120850, “Conformational adjustment overcomes multiple drug-resistance mutants of tropomyosin receptor kinase” (Eur J Med Chem, 2022).

Assays:
[1] = test system: BaF3; experiment: Antitumor activity against mouse Ba/F3 cells expressing in […] wildtype allografted in BALB/cA mouse assessed as reduction in tumor growth at 30 mg/kg twice daily for 12 to 14 days relative to control; assay type: functional; details: time 12-14 day, read-out: TGI
[2] = test system: BaF3; experiment: Antitumor activity against mouse Ba/F3 cells expressing in ETV6-TRKC-G623R mutant allografted in BALB/cA mouse assessed as reduction in tumor growth at 30 mg/kg twice daily for 12 to 14 days relative to control; details: BaF3, read-out: TGI

| Structure (SMILES) | inhibition in vivo at 30 mg/kg [1] [%] | inhibition in vivo at 30 mg/kg [2] [%] |
| --- | --- | --- |
| O=C(Nc1cnn2ccc(N3CCC[C@@H]3c3cc(F)ccc3F)nc12)N1CC[C@H](O)C1 [LAROTRECTINIB] | 30 | – |
| C[C@@H]1CCc2ncc(F)cc2[C@H]2CCCN2c2ccn3ncc(c3n2)C(=O)N1 [SELITRECTINIB] | – | 73 |
